The values below come from patent US9828368B2 (MERCK SHARP & DOHME CORP., priority 2013, dated 2017).

Like-named read-outs stand apart in the source and are kept apart here.

Assay [1] has as its target human orexin-2 receptor (Homo sapiens (Human), UniProt O43614). The assay is described as follows: FLIPR Ca2+ flux assay, hOX2R. It counts as cell-based. The following applies: CHO cells expressing human orexin-2 receptor; agonist 70 pM Ala-6,12 orexin-A. The procedure:
In a typical experiment the OX1 and OX2 receptor antagonistic activity of the compounds of the present invention was determined in accordance with the following experimental method. For intracellular calcium measurements, Chinese hamster ovary (CHO) cells expressing the rat orexin-1 receptor or the human orexin-2 receptor, are grown in Iscove's modified DMEM containing 2 mM L-glutamine, […], 1% hypoxanthine-thymidine supplement, 100 U/ml penicillin, 100 μg/ml streptomycin and 10% heat-inactivated fetal calf serum (FCS). The cells are seeded at 20,000 cells/well into Becton-Dickinson black 384-well clear bottom sterile plates coated with poly-D-lysine. All reagents were from GIBCO-Invitrogen Corp. The seeded plates are incubated overnight at 37° C. and 5% CO2. Ala-6,12 human orexin-A as the agonist is prepared as a 1 mM stock solution in 1% bovine serum albumin (BSA) and diluted in assay buffer (HBSS containing 20 mM HEPES, 0.1% BSA and 2.5 mM probenecid, pH7.4) for use in the assay at a final concentration of 70 pM. Test compounds are prepared as 10 mM stock solution in DMSO, then diluted in 384-well plates, first in DMSO, then assay buffer. On the day of the assay, cells are washed 3 times with 100 μl assay buffer and then incubated for 60 min (37° C., 5% CO2) in 60 μl assay buffer containing 1 μM Fluo-4AM ester, 0.02% pluronic acid, and 1% BSA. The dye loading solution is then aspirated and cells are washed 3 times with 100 μl assay buffer. 30 μl of that same buffer is left in each well. Within the Fluorescent Imaging Plate Reader (FLIPR, Molecular Devices), test compounds are added to the plate in a volume of 25 μl, incubated for 5 min and finally 25 μl of agonist is added. Fluorescence is measured for each well at 1 second intervals for 5 minutes and the height of each fluorescence peak is compared to the height of the fluorescence peak induced by 70 pM Ala-6,12 orexin-A with buffer in place of antagonist. […] The intrinsic orexin receptor antagonist activity of a compound which may be used in the present invention may be determined by these assays.
A general note: A change in cytosolic calcium serves as a functional read-out for many receptors and channels.

Assay [2] addresses hOX1R (Homo sapiens, UniProt O43613). The assay is described as follows: FLIPR Ca2+ flux assay, hOX1R. The assay is classed as cell-based.
[3] abbreviates: CHO cells, agonist 70 pM Ala-6,12 orexin-A, rat orexin-1 receptor, read-out: hOX1R FLIPR IC50.

Chain of human orexin-2 receptor (O43614 whole entry): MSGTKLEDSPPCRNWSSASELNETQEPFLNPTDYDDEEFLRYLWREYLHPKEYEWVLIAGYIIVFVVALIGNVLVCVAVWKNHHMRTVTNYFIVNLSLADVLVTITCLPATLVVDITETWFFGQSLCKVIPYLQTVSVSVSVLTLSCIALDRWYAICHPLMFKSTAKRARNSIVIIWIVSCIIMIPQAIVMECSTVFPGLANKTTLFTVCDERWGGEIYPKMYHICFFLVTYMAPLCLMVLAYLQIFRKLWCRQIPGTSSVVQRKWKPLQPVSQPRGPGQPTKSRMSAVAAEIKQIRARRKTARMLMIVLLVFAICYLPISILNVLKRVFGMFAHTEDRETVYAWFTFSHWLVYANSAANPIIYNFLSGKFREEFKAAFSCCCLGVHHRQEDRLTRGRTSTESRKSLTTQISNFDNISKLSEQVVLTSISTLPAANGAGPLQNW

As to `CC(O)c1nc([C@@H]2CC[C@@H](C)N(C(=O)c3ccccc3-n3nccn3)C2)oc1-c1ccccc1` (single isomer, unassigned) [Example 64], the results for the IC50 in assay [1] and in assay [2] (setting [3]) were 0.076 µM and 0.136 µM, respectively.

As for `CC(O)c1nc([C@@H]2CC[C@@H](C)N(C(=O)c3ccccc3-n3nccn3)C2)oc1-c1ccccc1` (single isomer, unassigned) [Example 65], the concentration for half-maximal inhibition (IC50) (as a rule, the point on the concentration scale where inhibition reaches its midpoint) in assay [1] is 0.13 µM; in assay [2] (setting [3]) it was 0.155 µM.

Consider `CCC(C)(O)c1nc([C@@H]2CC[C@@H](C)N(C(=O)c3ccsc3-n3nccn3)C2)oc1C` (stereo in doubt) [Example 48, (2-(2H-1,2,3-Triazol-2-yl)thiophen-3-yl)((2R,5R)-5-(4-((S)-2-hydroxybutan-2-yl)-5-methyloxazol-2-yl)-2-methylpiperidin-1-yl)methanone], for which the half-maximal inhibitory concentration (IC50) in assay [2] (setting [3]) came out at 1.81 µM.

Regarding `C[C@@H]1CC[C@@H](c2nc(Br)co2)CN1C(=O)c1ccccc1-n1nccn1` [Example 1, (2-(2H-1,2,3-Triazol-2-yl)phenyl)((2R,5R)-5-(4-bromooxazol-2-yl)-2-methylpiperidin-1-yl)methanone], the figures for the 50% inhibitory concentration (IC50) in assay [1] and in assay [2] were 0.138 µM and roughly 7.9 µM, respectively.

On to `COC(=O)C1CC1c1coc([C@@H]2CC[C@@H](C)N(C(=O)c3ccccc3-n3nccn3)C2)n1` (stereo partly drawn) [Example 2, Methyl 2-(2-((3R,6R)-1-(2-(2H-1,2,3-triazol-2-yl)benzoyl)-6-methylpiperidin-3-yl)oxazol-4-yl)cyclopropanecarboxylate], for which the IC50 in assay [1] turned out to be 0.049 µM; in assay [2] (setting [3]), 3 µM.

In the case of `C[C@@H]1CC[C@@H](c2nc(C3CC3)co2)CN1C(=O)c1ccccc1-n1nccn1` [Example 4, (2-(2H-1,2,3-Triazol-2-yl)phenyl)((2R,5R)-5-(4-cyclopropyloxazol-2-yl)-2-methylpiperidin-1-yl)methanone], the IC50 was determined as 0.047 µM in assay [1] and 0.7 µM in assay [2] (setting [3]).

For `C[C@@H]1CC[C@@H](c2nc(-c3ccccc3CO)co2)CN1C(=O)c1ccccc1-n1nccn1` [Example 5, (2-(2H-1,2,3-Triazol-2-yl)phenyl)((2R,5R)-5-(4-(2-(hydroxymethyl)phenyl)oxazol-2-yl)-2-methylpiperidin-l-yl)methanone], the concentration for half-maximal inhibition (IC50) in assay [1] stood at 0.03 µM; in assay [2] (setting [3]) it was 0.046 µM.

`C[C@@H]1CC[C@@H](c2nc(-c3cccc(F)n3)co2)CN1C(=O)c1ccccc1-n1nccn1` [Example 6, (2-(2H-1,2,3-Triazol-2-yl)phenyl)((2R, 5R)-5-(4-(6-fluoropyridin-2-yl)oxazol-2-yl)-2-methylpiperidin-1-yl)methanone]: the half-maximal inhibitory concentration (IC50) in assay [1] worked out at 0.15 µM; in assay [2] (setting [3]), 0.67 µM.

On to `Cc1cccc(-c2coc([C@@H]3CC[C@@H](C)N(C(=O)c4ccccc4-n4nccn4)C3)n2)c1` [Example 7, (2-(2H-1,2,3-Triazol-2-yl)phenyl)((2R,5R)-2-methyl-5-(4-(m-tolyl)oxazol-2-yl)piperidin-1-yl)methanone], for which the half-inhibitory concentration (IC50) in assay [1] was 0.41 µM; in assay [2] (setting [3]), 0.26 µM.

On to `C[C@@H]1CC[C@@H](c2nc(C(C)(C)O)co2)CN1C(=O)c1ccccc1-n1nccn1` [Example 10, (2-(2H-1,2,3-Triazol-2-yl)phenyl)((2R,5R)-5-(4-(2-hydroxypropan-2-yl)oxazol-2-yl)-2-methylpiperidin-1-yl)methanone], for which the half-inhibitory concentration (IC50) in assay [1] is 0.059 µM; in assay [2] (setting [3]), 2.7 µM.

On to `C[C@@H]1CC[C@@H](c2nc(C#N)c(Br)o2)CN1C(=O)c1ccccc1-n1nccn1` [Example 11, 2-((3R,6R)-1-(2-(2H-1,2,3-Triazol-2-yl)benzoyl)-6-methylpiperidin-3-yl)-5-bromooxazole-4-carbonitrile], for which the concentration for half-maximal inhibition (IC50) in assay [1] is 0.35 µM; in assay [2] (setting [3]) it was greater than 10 µM.

`COC(=O)c1nc([C@@H]2CC[C@@H](C)N(C(=O)c3ccccc3-n3nccn3)C2)oc1Br` [Example 12, Methyl 2-((3R,6R)-1-(2-(2H-1,2,3-Triazol-2-yl)benzoyl)-6-methylpiperidin-3-yl)-5-bromooxazole-4-carboxylate]: the half-inhibitory concentration (IC50) in assay [1] was found to be 0.03 µM; in assay [2] (setting [3]) it was 0.875 µM.

With `Cc1oc([C@@H]2CC[C@@H](C)N(C(=O)c3ccccc3-n3nccn3)C2)nc1C(C)(C)O` [Example 13, (2-(2H-1,2,3-Triazol-2-yl)phenyl)((2R,5R)-5-(4-(2-hydroxypropan-2-yl)-5-methyloxazol-2-yl)-2-methylpiperidin-1-yl)methanone], the figures for the IC50 in assay [1] and in assay [2] (setting [3]) were 0.0128 µM and 0.815 µM, respectively.

`C[C@@H]1CC[C@@H](c2nc(C(C)(C)O)c(C3CC3)o2)CN1C(=O)c1ccccc1-n1nccn1` [Example 14, (2-(2H-1,2,3-Triazol-2-yl)phenyl)((2R,5R)-5-(5-cyclopropyl-4-(2-hydroxypropan-2-yl)oxazol-2-yl)-2-methylpiperidin-1-yl)methanone]: the results for the IC50 in assay [1] and in assay [2] (setting [3]) were 0.019 µM and 0.021 µM, respectively.

For `CC(C)c1oc([C@@H]2CC[C@@H](C)N(C(=O)c3ccccc3-n3nccn3)C2)nc1C(C)(C)O` [Example 15, (2-(2H-1,2,3-Triazol-2-yl)phenyl)((2R,5R)-5-(4-(2-hydroxypropan-2-yl)-5-isopropyloxazol-2-yl)-2-methylpiperidin-1-yl)methanone], the IC50 is 0.017 µM in assay [1] and 0.01 µM in assay [2] (setting [3]).

With `C[C@@H]1CC[C@@H](c2nc(C(C)(C)C)co2)CN1C(=O)c1ccccc1-n1nccn1` [Example 16, (2-(2H-1,2,3-Triazol-2-yl)phenyl)((2R,5R)-5-(4-(tert-butyl)oxazol-2-yl)-2-methylpiperidin-1-yl)methanone], the IC50 was 0.06 µM in assay [1] and 0.29 µM in assay [2] (setting [3]).

In the case of `C[C@@H]1CC[C@@H](c2nc(-c3ccccc3)co2)CN1C(=O)c1ccccc1-n1nccn1` [Example 17, (2-(2H-1,2,3-Triazol-2-yl)phenyl)((2R,5R)-2-methyl-5-(4-phenyloxazol-2-yl)piperidin-1-yl)methanone], the results for the IC50 in assay [1] and in assay [2] (setting [3]) were 0.038 µM and 0.12 µM, respectively.

Turning to `Cc1oc([C@@H]2CC[C@@H](C)N(C(=O)c3ccccc3-n3nccn3)C2)nc1[C@@H](O)C(F)(F)F` [Example 18, (2-(2H-1,2,3-Triazol-2-yl)phenyl)((2R,5R)-2-methyl-5-(5-methyl-4-((R)-2,2,2-trifluoro-1-hydroxyethyl)oxazol-2-yl)piperidin-1-yl)methanone], the IC50 was 0.0139 µM in assay [1] and 0.42 µM in assay [2] (setting [3]).

`Cc1oc([C@@H]2CC[C@@H](C)N(C(=O)c3ccccc3-n3nccn3)C2)nc1[C@H](O)C(F)(F)F` [Example 19, (2-(2H-1,2,3-triazol-2-yl)phenyl)((2R,5R)-2-methyl-5-(5-methyl-4-((S)-2,2,2-trifluoro-1-hydroxyethyl)oxazol-2-yl)piperidin-1-yl)methanone]: the results for the IC50 in assay [1] and in assay [2] (setting [3]) were 0.024 µM and 0.79 µM, respectively.

As for `Cc1oc([C@@H]2CC[C@@H](C)N(C(=O)c3ccccc3C3(C#N)CC3)C2)nc1C(C)(C)O` [Example 20, 1-(2-((2R,5R)-5-(4-(2-Hydroxypropan-2-yl)-5-methyloxazol-2-yl)-2-methylpiperidine-1-carbonyl)phenyl)cyclopropanecarbonitrile], the figures for the 50% inhibitory concentration (IC50) in assay [1] and in assay [2] (setting [3]) were 0.0166 µM and 0.425 µM, respectively.

Take `Cc1oc([C@@H]2CC[C@@H](C)N(C(=O)c3ccccc3C3(C#N)CCOCC3)C2)nc1C(C)(C)O` [Example 21]: the IC50 in assay [1] is 0.5 µM; in assay [2] (setting [3]), greater than 10 µM.

In assay [1], `COc1ccccc1C(=O)N1C[C@H](c2nc(C(C)(C)O)c(C)o2)CC[C@H]1C` [Example 31, ((2R,5R)-5-(4-(2-Hydroxypropan-2-yl)-5-methyloxazol-2-yl)-2-methypiperidin-1-yl)(2-methoxyphenyl)methanone] had a half-maximal inhibitory concentration (IC50) of 0.08 µM.

As to `Cc1oc([C@@H]2CC[C@@H](C)N(C(=O)c3cscc3-c3ncccn3)C2)nc1C(C)(C)O` [Example 36], the half-inhibitory concentration (IC50) in assay [2] (setting [3]) is greater than 10 µM.

Consider `CC[C@](C)(O)c1nc([C@@H]2CC[C@@H](C)N(C(=O)c3ccsc3-n3nccn3)C2)oc1C` [Example 49, (2-(2H-1,2,3-triazol-2-yl)thiophen-3-yl)((2R,5R)-5-(4-((S)-2-hydroxybutan-2-yl)-5-methyloxazol-2-yl)-2-methylpiperidin-1-yl)methanone], for which the IC50 in assay [2] (setting [3]) is 1.74 µM.

Consider `C[C@@H]1CC[C@@H](c2nc(CN(C)C)c(-c3ccccc3)o2)CN1C(=O)c1ccccc1-n1nccn1` [Example 66, (2-(2H-1,2,3-Triazol-2-yl)phenyl)((2R,5R)-5-(4-((dimethylamino)methyl)-5-phenyloxazol-2-yl)-2-methylpiperidin-1-yl)methanone], for which, in assay [1], the concentration for half-maximal inhibition (IC50) was 0.983 µM.

In the case of `COC(=O)Cc1nc([C@@H]2CC[C@@H](C)N(C(=O)c3ccccc3-n3nccn3)C2)oc1-c1ccccc1` [Example 67], the IC50 in assay [2] (setting [3]) came out at 0.093 µM.
